Test results published in patent US20260131016A1, “NOVEL AURISTATIN ANALOGS AND IMMUNOCONJUGATES THEREOF” (ADCENTRX THERAPEUTICS INC., priority 2021, published 2026).
Square brackets hold non-standard residues; d marks the D form. Peptide text beside a SMILES is read from it. * marks the point of attachment. Dolaproine = CO[C@@H]([C@@H]1CCCN1)[C@@H](C)C(=O)O; Dil = CC[C@H](C)[C@H](NC)[C@@H](CC(=O)O)OC; NMe2Val = CC(C)[C@@H](C(=O)*)N(C)C

Each compound was assayed on HCC1954 breast ductal carcinoma (assay: Cell viability (Cell Titer Glo 2.0) in HCC1954, 120 hours). Settings: HCC1954 5-Day Assay; N-methylation of the amide between P4 and P5.
Format: cell-based
Procedure: HCC1954 breast ductal carcinoma and T47D cells (ATCC, Manassas, VA, USA) were seeded into 384-well white-walled culture plates and allowed to adhere for 2-4 hours. Cells were then treated at least in duplicate by addition of 5-fold serially diluted test articles prepared at 2× final concentration and incubated at 37° C. for 120 hours. Cell viability following treatment was determined by Cell Titer Glo 2.0 Assay (Promega, Madison, WI, USA) and normalized to non-treated controls. Dose-response relationships were analyzed using GraphPad Prism (La Jolla, CA, USA), and IC50 values were derived from non-linear regression analyses using a 4-parameter logistic equation.

SMILES | IC50[N—Me amide]/IC50[NH-amide]
CC[C@H](C)[C@@H]([C@@H](CC(=O)N1CCC[C@H]1[C@H](OC)[C@@H](C)C(=O)N[C@H](C)[C@@H](O)c1ccccc1)OC)N(C)C(=O)[C@@H](NC(=O)[C@H](C(C)C)N(C)C)C(C)C [Auristatin E, reference compound] | 23
CC[C@H](C)[C@@H]([C@@H](CC(=O)N1CCC[C@H]1[C@H](OC)[C@@H](C)C(=O)N[C@@H](Cc1ccccc1)C(=O)OC)OC)N(C)C(=O)[C@@H](NC(=O)[C@H](C(C)C)N(C)C)C(C)C [Auristatin PHE, reference compound] (NMe2Val-V[Dil][Dolaproine]F-OMe) | 139

Same assay, conditions: Homo sapiens, HCC1954, 120 h, read-out: IC50 (nM), in vitro potency in HCC1954

SMILES | IC50 [nM]
CC[C@H](C)[C@@H]([C@@H](CC(=O)N1CCC[C@H]1[C@H](OC)[C@@H](C)C(=O)N(C)CCc1cccc(N)c1)OC)N(C)C(=O)[C@@H](NC(=O)[C@@H](C)N(C)C)C(C)C [Compound 3, (S)-N-((3R,4S,5S)-1-((S)-2-((IR,2R)-3-((3-aminophenethyl)(methyl)amino)-1-methoxy-2-methyl-3-oxopropyl)pyrrolidin-1-yl)-3-methoxy-5-methyl-1-oxoheptan-4-yl)-2-((R)-2-(dimethylamino)propanamido)-N,3-dimethylbutanamide] | < 5
CC[C@H](C)[C@@H]([C@@H](CC(=O)N1CCC[C@H]1[C@H](OC)[C@@H](C)C(=O)N(C)CCc1cccc(N)c1)OC)N(C)C(=O)[C@@H](NC(=O)CN(C)C)C(C)C [Compound 4, (S)-N-((3R,4S,5S)-1-((S)-2-((1R,2R)-3-((3-aminophenethyl)(methyl)amino)-1-methoxy-2-methyl-3-oxopropyl)pyrrolidin-1-yl)-3-methoxy-5-methyl-1-oxoheptan-4-yl)-2-(2-(dimethylamino)acetamido)-N,3-dimethylbutanamide] | < 5
CC[C@H](C)[C@@H]([C@@H](CC(=O)N1CCC[C@H]1[C@H](OC)[C@@H](C)C(=O)N(C)CCc1cccc(N)c1)OC)N(C)C(=O)[C@@H](NC(=O)C(C)(C)CN(C)C)C(C)C [Compound 5, (S)-N-((3R,4S,5S)-1-((S)-2-((1R,2R)-3-((3-aminophenethyl)(methyl)amino)-1-methoxy-2-methyl-3-oxopropyl)pyrrolidin-1-yl)-3-methoxy-5-methyl-1-oxoheptan-4-yl)-2-(3-(dimethylamino)-2,2-dimethylpropanamido)-N,3-dimethylbutanamide] | 5 to 10
CC[C@H](C)[C@@H]([C@@H](CC(=O)N1CCC[C@H]1[C@H](OC)[C@@H](C)C(=O)N(C)CCc1cccc(N)c1)OC)N(C)C(=O)[C@@H](NC(=O)[C@@H]1CCCN(C)C1)C(C)C [Compound 6, (R)-N-((S)-1-(((3R,4S,5S)-1-((S)-2-((IR,2R)-3-((3-aminophenethyl)(methyl)amino)-1-methoxy-2-methyl-3-oxopropyl)pyrrolidin-1-yl)-3-methoxy-5-methyl-1-oxoheptan-4-yl)(methyl)amino)-3-methyl-1-oxobutan-2-yl)-1-methylpiperidine-3-carboxamide] | > 10
CC[C@H](C)[C@@H]([C@@H](CC(=O)N1CCC[C@H]1[C@H](OC)[C@@H](C)C(=O)N(C)CCc1cccc(N)c1)OC)N(C)C(=O)[C@@H](NC(=O)C(C)(C)N(C)C)C(C)C [Compound 7, (S)-N-((3R,4S,5S)-1-((S)-2-((IR,2R)-3-((3-aminophenethyl)(methyl)amino)-1-methoxy-2-methyl-3-oxopropyl)pyrrolidin-1-yl)-3-methoxy-5-methyl-1-oxoheptan-4-yl)-2-(2-(dimethylamino)-2-methylpropanamido)-N,3-dimethylbutanamide] | < 5
CC[C@H](C)[C@@H]([C@@H](CC(=O)N1CCC[C@H]1[C@H](OC)[C@@H](C)C(=O)N(C)CCc1cccc(N)c1)OC)N(C)C(=O)[C@@H](NC(=O)[C@@H]1CCCN1C)C(C)C [Compound 8] | < 5
CC[C@H](C)[C@@H]([C@@H](CC(=O)N1CCC[C@H]1[C@H](OC)[C@@H](C)C(=O)N(C)CCc1cccc(N)c1)OC)N(C)C(=O)[C@@H](NC(=O)[C@H]1CCCN1C)C(C)C [Compound 9, (R)-N-((S)-1-(((3R,4S,5S)-1-((S)-2-((1R,2R)-3-((3-aminophenethyl)(methyl)amino)-1-methoxy-2-methyl-3-oxopropyl)pyrrolidin-1-yl)-3-methoxy-5-methyl-1-oxoheptan-4-yl)(methyl)amino)-3-methyl-1-oxobutan-2-yl)-1-methylpyrrolidine-2-carboxamide] | < 5
CC[C@H](C)[C@@H]([C@@H](CC(=O)N1CCC[C@H]1[C@H](OC)[C@@H](C)C(=O)N(C)CCc1cccc(N)c1)OC)N(C)C(=O)[C@@H](NC(=O)[C@@H]1CCN(C)C1)C(C)C [Compound 10, (R)-N-((S)-1-(((3R,4S,5S)-1-((S)-2-((IR,2R)-3-((3-aminophenethyl)(methyl)amino)-1-methoxy-2-methyl-3-oxopropyl)pyrrolidin-1-yl)-3-methoxy-5-methyl-1-oxoheptan-4-yl)(methyl)amino)-3-methyl-1-oxobutan-2-yl)-1-methylpyrrolidine-3-carboxamide] | > 10
CC[C@H](C)[C@@H]([C@@H](CC(=O)N1CCC[C@H]1[C@H](OC)[C@@H](C)C(=O)N(C)CCc1cccc(N)c1)OC)N(C)C(=O)[C@@H](NC(=O)[C@H]1CCCCN1C)C(C)C [Compound 11, (R)-N-((S)-1-(((3R,4S,5S)-1-((S)-2-((1R,2R)-3-((3-aminophenethyl)(methyl)amino)-1-methoxy-2-methyl-3-oxopropyl)pyrrolidin-1-yl)-3-methoxy-5-methyl-1-oxoheptan-4-yl)(methyl)amino)-3-methyl-1-oxobutan-2-yl)-1-methylpiperidine-2-carboxamide] | < 5
CC[C@H](C)[C@@H]([C@@H](CC(=O)N1CCC[C@H]1[C@H](OC)[C@@H](C)C(=O)N(C)CCc1cccc(N)c1)OC)N(C)C(=O)[C@@H](NC(=O)C1(N(C)C)CCC1)C(C)C [Compound 12, N-((S)-1-(((3R,4S,5S)-1-((S)-2-((IR,2R)-3-((3-aminophenethyl)(methyl)amino)-1-methoxy-2-methyl-3-oxopropyl)pyrrolidin-1-yl)-3-methoxy-5-methyl-1-oxoheptan-4-yl)(methyl)amino)-3-methyl-1-oxobutan-2-yl)-1-(dimethylamino)cyclobutanecarboxamide] | < 5
CC[C@H](C)[C@@H]([C@@H](CC(=O)N1CCC[C@H]1[C@H](OC)[C@@H](C)C(=O)N(C)CCc1cccc(N)c1)OC)N(C)C(=O)[C@@H](NC(=O)[C@@H]1CCCCN1C)C(C)C [Compound 13, (S)-N-((S)-1-(((3R,4S,5S)-1-((S)-2-((IR,2R)-3-((3-aminophenethyl)(methyl)amino)-1-methoxy-2-methyl-3-oxopropyl)pyrrolidin-1-yl)-3-methoxy-5-methyl-1-oxoheptan-4-yl)(methyl)amino)-3-methyl-1-oxobutan-2-yl)-1-methylpiperidine-2-carboxamide] | < 5
CC[C@H](C)[C@@H]([C@@H](CC(=O)N1CCC[C@H]1[C@H](OC)[C@@H](C)C(=O)N(C)CCc1ccccc1N)OC)N(C)C(=O)[C@@H](NC(=O)[C@@H](C(C)C)N(C)C)C(C)C [Compound 15, (S)-N-((3R,4S,5S)-1-((S)-2-((1R,2R)-3-((2-aminophenethyl)(methyl)amino)-1-methoxy-2-methyl-3-oxopropyl)pyrrolidin-1-yl)-3-methoxy-5-methyl-1-oxoheptan-4-yl)-2-((R)-2-(dimethylamino)-3-methylbutanamido)-N,3-dimethylbutanamide] | < 5
CC[C@H](C)[C@@H]([C@@H](CC(=O)N1CCC[C@H]1[C@H](OC)[C@@H](C)C(=O)N(C)CCc1ccccc1N)OC)N(C)C(=O)[C@@H](NC(=O)[C@@H](C)N(C)C)C(C)C [Compound 17, (S)-N-((3R,4S,5S)-1-((S)-2-((1R,2R)-3-((2-aminophenethyl)(methyl)amino)-1-methoxy-2-methyl-3-oxopropyl)pyrrolidin-1-yl)-3-methoxy-5-methyl-1-oxoheptan-4-yl)-2-((R)-2-(dimethylamino)propanamido)-N,3-dimethylbutanamide] | < 5
CC[C@H](C)[C@@H]([C@@H](CC(=O)N1CCC[C@H]1[C@H](OC)[C@@H](C)C(=O)N(C)CCc1ccccc1N)OC)N(C)C(=O)[C@@H](NC(=O)CN(C)C)C(C)C [Compound 18, (S)-N-((3R,4S,5S)-1-((S)-2-((1R,2R)-3-((2-aminophenethyl)(methyl)amino)-1-methoxy-2-methyl-3-oxopropyl)pyrrolidin-1-yl)-3-methoxy-5-methyl-1-oxoheptan-4-yl)-2-(2-(dimethylamino)acetamido)-N,3-dimethylbutanamide] | 5 to 10
CC[C@H](C)[C@@H]([C@@H](CC(=O)N1CCC[C@H]1[C@H](OC)[C@@H](C)C(=O)N(C)CCc1ccc(N)cc1)OC)N(C)C(=O)[C@@H](NC(=O)CN(C)C)C(C)C [Compound 27, (S)-N-((3R,4S,5S)-1-((S)-2-((IR,2R)-3-((4-aminophenethyl)(methyl)amino)-1-methoxy-2-methyl-3-oxopropyl)pyrrolidin-1-yl)-3-methoxy-5-methyl-1-oxoheptan-4-yl)-2-(2-(dimethylamino)acetamido)-N,3-dimethylbutanamide] | < 5
